Data reported in patent US7112593B2, “N-aryl-substituted cyclic amine derivative and medicine containing the same as active ingredient” (Eisai Co., Ltd., priority 2001, dated 2006).

Columns and labels:
Squalene synthase = target: T1, Squalene synthase (Rattus norvegicus, UniProt Q02769); test: Measurement of squalene synthase inhibitive activity by using a rat liver microsome; format: biochemical; conditions: [3H]-farnesylpyrophosphoric acid
T1 construct: the obtained residue was used as a microsome fraction; from tissue; host or cells: liver microsome fraction of male Sprague-Dawley rat (8 to 9 weeks in age)
T1 sequence (Q02769 1-416): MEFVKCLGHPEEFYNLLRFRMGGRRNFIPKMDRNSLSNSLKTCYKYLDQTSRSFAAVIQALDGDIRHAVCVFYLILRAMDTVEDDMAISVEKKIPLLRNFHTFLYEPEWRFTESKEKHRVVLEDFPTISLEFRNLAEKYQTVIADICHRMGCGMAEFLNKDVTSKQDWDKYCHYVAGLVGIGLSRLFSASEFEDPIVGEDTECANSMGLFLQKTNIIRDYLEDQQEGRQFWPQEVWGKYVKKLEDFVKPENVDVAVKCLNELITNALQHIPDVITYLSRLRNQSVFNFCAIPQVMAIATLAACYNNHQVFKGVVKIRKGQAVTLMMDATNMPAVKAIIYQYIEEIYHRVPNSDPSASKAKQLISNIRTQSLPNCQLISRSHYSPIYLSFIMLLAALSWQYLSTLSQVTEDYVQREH
Procedure: Measurement of Squalene Synthase Inhibitive Activity by Using a Rat Liver Microsome
(I) The reaction was run on a scale of 500 μl. 200 μl of a solution containing 125 mM tris-hydrochloric acid (pH: 7.3), 2.5 mM magnesium chloride, 5 mM potassium fluoride and 10 mM reduction type nicotinamidoadenine dinucleotide phosphoric acid, 100 μl of the specimen solution with a 5-fold concentration, 100 μl of distilled water and 50 μl of 0.4 to 1 mg/ml rat liver microsome prepared by the following method were mixed.
(II) The above mixture was pre-incubated at 37° C. for 10 minutes and thereafter, 50 μl of 100 μM [^3H]-farnesylpyrophosphoric acid (30 mCi/mmol, NEN) was added to the mixture to start a reaction. The reaction was continued at 37° C. for 10 minutes. 1 ml of ethanol was added to the resulting mixture to terminate the reaction and then 1 ml of distilled water and 3 ml of petroleum ether were added to the reaction solution, which was then shaken for 30 minutes. The water phase was separated from the organic phase, the water phase was frozen at −70° C. in dry ice/methanol and the radio activity of the organic phase was measured using a liquid scintillator. Or the organic phase was evaporated to dryness using nitrogen gas and the residue was dissolved as a marker in 25 μl of chloroform containing squalene, farnesol and cholesterol. This sample was spotted on a TCL plate (Merck) and developed using heptane for 15 to 20 minutes. A band of squalene was cut from the plate to measure the radio activity by using a liquid scintillation counter. The data was expressed by a concentration (IC50) at which 50% of the radio activity of a control group was inhibited.
Preparation Method for Rat Liver Microsome
All the following operations were performed on ice and centrifugation was performed at 4° C. […] The protein concentration of the suspension was quantitated by the Bradford method and the suspension was adjusted to 20 mg/ml with the same solution and stored at −70° C.

rat liver cell = test: Measurement of cholesterol biosynthesis inhibitive activity in a rat liver cell; format: cell-based; conditions: isolated male SD rat liver cells, [1-14C]acetic acid incorporation into free cholesterol
Procedure: Measurement of Cholesterol Biosynthesis Inhibitive Activity in a Rat Liver Cell
A liver cell was isolated from a male SD rat according to a usual method (collagenase perfusion method) and subjected to an experiment.
The isolated liver cells were planted in an amount of 500 μl every well on a Type collagen coated 24 well plate (cell density: 4×10^5 cell/ml). As the cell culture solution, a Williams' E medium (adjusted to pH 7.4) containing 10% FCS, 1 μM insulin, 1 μM dexamethasone, 100 units/ml penicillin and 100 μg/ml streptomycin was used. After the liver cells were incubated in a CO2 incubator for 2 hours, unattached cells were removed and the liver cells were further incubated overnight.
After the culture medium was exchanged, the specimen diluted in a 10% DMSO-90% cell culture solution was added to each well inan amount of 5 μl. DMSO (final concentration: 0.1%) was added toacontrolgroup. A [1-^14C]Aceticacid, sodiumsalt (5 μCi/well) was added to the media 10 minutes after the specimen was added, followed by culturing for further 2 hours. […]
After the development was finished, the TLC plate was subjected to iodine color development. […] This transferred image was analyzed using a BAS 2000 IP Reader and an Imaging analyzer II to measure radio activities contained in the free cholesterol fractions. […]

SMILES | IC50 (Squalene synthase) [nM] | IC50 (rat liver cell) [nM]
CO[C@@H]1CN(c2ccc(C#CC3(O)CCCNC3)c(Cc3ccccc3)n2)C[C@H]1O (stereo partly drawn) [Example 1, 3-[2-Benzyl-6-[(3R,4R)-3-hydroxy-4-methoxypyrrolidin-1-yl]-3-pyridyl]ethynyl-3-piperidinol] | 1.4 | 0.45
CO[C@@H]1CN(c2ccc(C#CC3(N)CCCCC3)c(Cc3ccccc3)n2)C[C@H]1O [Example 7, 1-[2-Benzyl-6-[(3R,4R)-3-hydroxy-4-methoxypyrrolidin-1-yl]-3-pyridyl]ethynylcyclohexylamine] | 0.53 | –
CO[C@H]1C(=O)N(c2ccc(C#CC3(N)CCCCC3)c(Cc3ccccc3)n2)C[C@H]1O [Example 9, 1-[2-Benzyl-6-[(3R,4R)-4-hydroxy-3-methoxy-2-pyrrolidinon-1-yl]-3-pyridyl]ethynylcyclohexylamine] | 0.78 | –
CO[C@H]1CN(c2ccc(C#C[C@@]3(O)CN4CCC3CC4)c(Cc3ccccc3)c2)C[C@H]1OC [Example 18, (3R)-3-[2-Benzyl-4-[(3R,4S)-3,4-dimethoxypyrrolidin-1-yl)phenyl]ethynyl-3-quinuclidinol] | – | 0.16
